No end group written: not given here.
Tested on: WI38
Assay: not given
Settings: MTT, 24 hours with peptide; normal fibroblast line

Substance | WI38 LD50 [µg/mL]
FAKKLAKKLL-NH2 [P59] | 77

Tested on: P. aeruginosa H374
Assay: not given
Assay type: cell-based, Pseudomonas aeruginosa
Parameters: key to FIC Index: FIC = 0.25 + MIC antibiotic in combination / MIC alone; ≤0.5 = synergy
Settings: MIC of chloramphenicol with peptide at ¼ MIC
Procedure, shortened: (§1)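 Synergy against efflux-mutant strains: two-fold dilutions of nalidixic acid or chloramphenicol tested with peptide held at ¼ of its MIC.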

Substance | MIC Cm-comb. [µg/mL]
FAKALKALLKALKAL-NH2 [P64] | 16
FAKKLAKKLL-NH2 [P59] | 8
GIGKFLKKAKKFGKAFVKILKK-NH2 [P42, reference compound] | 16
VAKKLAKLAKKLAKLAL-NH2 [P50] | 16

Same assay, conditions: MIC of nalidixic acid with peptide at ¼ MIC

Substance | MIC Nal-comb. [µg/mL]
FAKALKALLKALKAL-NH2 [P64] | 5000
FAKKLAKKLL-NH2 [P59] | 2500
GIGKFLKKAKKFGKAFVKILKK-NH2 [P42, reference compound] | 5000
VAKKLAKLAKKLAKLAL-NH2 [P50] | 5000

Same assay, conditions: chloramphenicol + peptide at ¼ MIC, 0.5 or less = synergy

Substance | FIC Index
FAKALKALLKALKAL-NH2 [P64] | 1.25
FAKKLAKKLL-NH2 [P59] | 0.75
GIGKFLKKAKKFGKAFVKILKK-NH2 [P42, reference compound] | 1.25
VAKKLAKLAKKLAKLAL-NH2 [P50] | 1.25

Same assay, conditions: nalidixic acid + peptide at ¼ MIC, FIC=0.25+MIC comb/MIC alone, 0.5 or less = synergy

Substance | FIC Index
FAKALKALLKALKAL-NH2 [P64] | 1.25
FAKKLAKKLL-NH2 [P59] | 0.75
GIGKFLKKAKKFGKAFVKILKK-NH2 [P42, reference compound] | 1.25
VAKKLAKLAKKLAKLAL-NH2 [P50] | 1.25

Tested on: P. aeruginosa H774
Assay: not given
Assay type: cell-based, Pseudomonas aeruginosa
Parameters: key to FIC Index: FIC = 0.25 + MIC antibiotic in combination / MIC alone; ≤0.5 = synergy
Settings: P. aeruginosa H744; nalidixic acid + peptide at ¼ MIC; 0.5 or less = synergy
Procedure, shortened: as §1

Substance | FIC Index
FAKALKALLKALKAL-NH2 [P64] | 1.25
FAKKLAKKLL-NH2 [P59] | 1.25
GIGKFLKKAKKFGKAFVKILKK-NH2 [P42, reference compound] | 1.25
VAKKLAKLAKKLAKLAL-NH2 [P50] | 1.25

Tested on: P. aeruginosa
Assay: not given
Assay type: cell-based, Pseudomonas aeruginosa
Parameters: key to FIC Index: FIC = 0.25 + MIC antibiotic in combination / MIC alone; ≤0.5 = synergy
Settings: P. aeruginosa H744; MIC of nalidixic acid with peptide at ¼ MIC
Procedure, shortened: as §1

Substance | MIC Nal-comb. [µg/mL]
FAKALKALLKALKAL-NH2 [P64] | 624
FAKKLAKKLL-NH2 [P59] | 624
GIGKFLKKAKKFGKAFVKILKK-NH2 [P42, reference compound] | 624
VAKKLAKLAKKLAKLAL-NH2 [P50] | 624

Tested on: P. acne ATCC 6919
Assay: Antimicrobial assays II, NCCLS broth microdilution MIC
Assay type: cell-based, Propionibacterium acnes
Settings: mean of three, in µg/mL

Substance | P. acne MIC
FAKALKALLKALKAL-NH2 [P64] | 2
FAKKLAKKLL-NH2 [P59] | 2
GIGKFLKKAKKFGKAFVKILKK-NH2 [P42, reference compound] | 2
VAKKLAKLAKKLAKLAL-NH2 [P50] | 4

Tested on: not listed separately
Assay: in vitro
Assay type: cell-based, human
Settings: human, human red blood cells, pH 7, hemolytic assay, concentration at 50% hemolysis, 1 hour at 37° C.; read-out: LD50

Substance | HC50 at 1 h [µg/mL]
FAKKLAKKLL-NH2 [P59] | 1000

Tested on: S. aureus (MRSA)
Assay: not given
Assay type: cell-based, Staphylococcus aureus
Settings: mean of three; 16 to 20 hours at 35° C.

Substance | S. aureus (MRSA) MIC [µg/mL]
FAKALKALLKALKAL-NH2 [P64] | 8
FAKKLAKKLL-NH2 [P59] | 8
GIGKFLKKAKKFGKAFVKILKK-NH2 [P42, reference compound] | 16
VAKKLAKLAKKLAKLAL-NH2 [P50] | 4

Tested on: Staphylococcus aureus ATCC 6538
Assay: Antimicrobial assay I, MIC by OD measurement
Assay type: cell-based
Settings: 37° C. for 24 hours, absorbance 620 nm

Substance | staph6538 (MIC)
FAKALKALLKALKAL-NH2 [P64] | 5 µg/mL
FAKKLAKKLL-NH2 [P59] | > (> indicates greater than 200 μg/mL)
GIGKFLKKAKKFGKAFVKILKK-NH2 [P42, reference compound] | 10 µg/mL
VAKKLAKLAKKLAKLAL-NH2 [P50] | 5 µg/mL

Tested on: Pseudomonas aeruginosa ATCC 9027
Assay: Antimicrobial assay I, MIC by OD measurement
Assay type: cell-based
Settings: 37° C. for 24 hours, absorbance 620 nm

Substance | paerug9027 (MIC)
FAKALKALLKALKAL-NH2 [P64] | > (> indicates greater than 200 μg/mL)
FAKKLAKKLL-NH2 [P59] | > (> indicates greater than 200 μg/mL)
GIGKFLKKAKKFGKAFVKILKK-NH2 [P42, reference compound] | > (> indicates greater than 200 μg/mL)
VAKKLAKLAKKLAKLAL-NH2 [P50] | 15 µg/mL

Tested on: not listed separately
Assay: in vitro
Settings: human, WI38 normal lung fibroblast cells, LD50 WI38, WI38 normal lung fibroblast line, MTT, 24 hours with peptide

Substance | CC50 at 24 h [µg/mL]
FAKKLAKKLL-NH2 [P59] | 77

Tested on: S. epidermidis C621
Assay: not given
Assay type: cell-based, Staphylococcus epidermidis
Settings: mean of three; 16 to 20 hours at 35° C.

Substance | S. epidermidis C621 MIC [µg/mL]
FAKALKALLKALKAL-NH2 [P64] | 4
FAKKLAKKLL-NH2 [P59] | 8
GIGKFLKKAKKFGKAFVKILKK-NH2 [P42, reference compound] | 2
VAKKLAKLAKKLAKLAL-NH2 [P50] | 4

Tested on: yeast (Saccharomyces cerevisiae)
Assay: Antimicrobial assay I, yeast assay in RPMI 1640
Assay type: cell-based
Settings: RPMI 1640 media

Substance | yeast (MIC or MFC)
FAKALKALLKALKAL-NH2 [P64] | 200 µg/mL
FAKKLAKKLL-NH2 [P59] | > (> indicates greater than 200 μg/mL)
GIGKFLKKAKKFGKAFVKILKK-NH2 [P42, reference compound] | 200 µg/mL
VAKKLAKLAKKLAKLAL-NH2 [P50] | 50 µg/mL

Tested on: S. pyogenes M76
Assay: Antimicrobial assays II, NCCLS broth microdilution MIC
Assay type: cell-based, Streptococcus pyogenes
Settings: mean of three; 16 to 20 hours at 35° C.

Substance | S. pyogenes M76 MIC [µg/mL]
FAKALKALLKALKAL-NH2 [P64] | 4
FAKKLAKKLL-NH2 [P59] | 2
GIGKFLKKAKKFGKAFVKILKK-NH2 [P42, reference compound] | 4
VAKKLAKLAKKLAKLAL-NH2 [P50] | 8

Tested on: PC3
Assay: Anti-cancer assay, MTT, LD50
Assay type: cell-based
Settings: 24 hours with peptide, prostate adenocarcinoma
Excerpt: (§2) Numbers are LD50 values (μg/mL).

Substance | PC3 LD50 [µg/mL]
FAKALKALLKALKAL-NH2 [P64] | 46
FAKKLAKKLL-NH2 [P59] | 81
GIGKFLKKAKKFGKAFVKILKK-NH2 [P42, reference compound] | 66
VAKKLAKLAKKLAKLAL-NH2 [P50] | 54

Tested on: BMKC
Assay: Anti-cancer assay, MTT, LD50
Assay type: cell-based
Settings: BMKC cloned melanoma line, 24 hours with peptide
Excerpt: as §2

Substance | LD50 BMKC [µg/mL]
FAKALKALLKALKAL-NH2 [P64] | 35
FAKKLAKKLL-NH2 [P59] | 155
GIGKFLKKAKKFGKAFVKILKK-NH2 [P42, reference compound] | 140
VAKKLAKLAKKLAKLAL-NH2 [P50] | 40

Tested on: HeLaS3
Assay: Anti-cancer assay, MTT, LD50
Assay type: cell-based
Settings: 24 hours with peptide, cervical carcinoma
Excerpt: as §2

Substance | HeLaS3 LD50 [µg/mL]
FAKALKALLKALKAL-NH2 [P64] | 30
VAKKLAKLAKKLAKLAL-NH2 [P50] | 33

Tested on: H1299
Assay: Anti-cancer assay, MTT, LD50
Assay type: cell-based
Settings: 24 hours with peptide, lung large cell carcinoma
Excerpt: as §2

Substance | H1299 LD50 [µg/mL]
FAKALKALLKALKAL-NH2 [P64] | 30
FAKKLAKKLL-NH2 [P59] | 180
GIGKFLKKAKKFGKAFVKILKK-NH2 [P42, reference compound] | 150
VAKKLAKLAKKLAKLAL-NH2 [P50] | 7

Tested on: SW480
Assay: Anti-cancer assay, MTT, LD50
Assay type: cell-based
Settings: SW480 colon adenocarcinoma line, 24 hours with peptide
Excerpt: as §2

Substance | LD50 SW480 [µg/mL]
FAKKLAKKLL-NH2 [P59] | 42
GIGKFLKKAKKFGKAFVKILKK-NH2 [P42, reference compound] | 34
VAKKLAKLAKKLAKLAL-NH2 [P50] | 46

Tested on: MCF7
Assay: Anti-cancer assay, MTT, LD50
Assay type: cell-based
Settings: MCF7 breast adenocarcinoma line, MTT, 24 hours with peptide
Excerpt: as §2

Substance | LD50 MCF7 [µg/mL]
FAKALKALLKALKAL-NH2 [P64] | 80
FAKKLAKKLL-NH2 [P59] | 31
GIGKFLKKAKKFGKAFVKILKK-NH2 [P42, reference compound] | 31
VAKKLAKLAKKLAKLAL-NH2 [P50] | 32

Tested on: S. pyogenes ATCC19615
Assay: Antimicrobial assays II, NCCLS broth microdilution MIC
Assay type: cell-based, Streptococcus pyogenes
Settings: mean of three, in µg/mL

Substance | S. pyogenes MIC
FAKALKALLKALKAL-NH2 [P64] | 4
FAKKLAKKLL-NH2 [P59] | 2
GIGKFLKKAKKFGKAFVKILKK-NH2 [P42, reference compound] | 4
VAKKLAKLAKKLAKLAL-NH2 [P50] | 4

Tested on: S. pneumoniae C719
Assay: as above
Assay type: cell-based, Streptococcus pneumoniae
Settings: mean of three, in µg/mL

Substance | S. pneumoniae MIC
FAKALKALLKALKAL-NH2 [P64] | 2
FAKKLAKKLL-NH2 [P59] | 4
GIGKFLKKAKKFGKAFVKILKK-NH2 [P42, reference compound] | 8
VAKKLAKLAKKLAKLAL-NH2 [P50] | 16

Tested on: S. pneumoniae C718
Assay: as above
Assay type: cell-based, Streptococcus pneumoniae
Settings: mean of three

Substance | S. pneumoniae MIC [µg/mL]
FAKALKALLKALKAL-NH2 [P64] | 8
FAKKLAKKLL-NH2 [P59] | 16
GIGKFLKKAKKFGKAFVKILKK-NH2 [P42, reference compound] | 32
VAKKLAKLAKKLAKLAL-NH2 [P50] | 32

— US20050209157A1, “Short bioactive peptides and methods for their use” (priority 2001, published 2005)
